Test results reported in paper PMC6115404 (2018).

Experiments:
[1] = tested on: Tel26 (DNA, G4) AAAGGGTTAGGGTTAGGGTTAGGGAA; assay: NMR solution structure; details: K+ (25 mM K-phosphate, 70 mM KCl); pH 7.0, 25 °C; bound at 5'-end, slow exchange
[2] = tested on: Tel26 (for FRET) (DNA, G4) AAAGGGTTAGGGTTAGGGTTAGGGAA; assay: FRET melting; details: K+ (60 mM potassium cacodylate); pH 7.4; 400 nM DNA, 1.0 equivalent compound; second Tm (ΔTm 41.5, dimeric complex) at 2-3 equivalents
[3] = tested on: wtTel26 (DNA, G4) TTAGGGTTAGGGTTAGGGTTAGGGTT; assay: 1H NMR titration; details: K+ (25 mM K-phosphate, 70 mM KCl); no well-defined complex at higher equivalents
[4] = tested on: F10T (for FRET), double-stranded DNA (DNA, hairpin, hexaethylene glycol (HEG) linker between nucleotides 10 and 11) TATAGCTATATATAGCTATA; assay: FRET melting; details: K+ (60 mM potassium cacodylate); pH 7.4; 400 nM DNA; compound concentration not in text

Which results are given for NCCNCCN.NCCNCCN.NCCNCCN.[Pt+2].[Pt+2].[Pt+2].c1cc(-c2ccc(N(c3ccc(-c4ccncc4)cc3)c3ccc(-c4ccncc4)cc3)cc2)ccn1?
binding [1]: yes; ΔTm [2]: 8.4 °C; binding [3]: yes; ΔTm [4]: 2.5 °C
